Measured values as given in patent publication US20180244611A1, “Modulators of the Cystic Fibrosis Transmembrane Conductance Regulator Protein and Methods of Use” (AbbVie S.à.r.l., priority 2017, published 2018).
pEC50: −log10 of the molar value.

Legend:
[1] = target: T1, F508delCFTR (Homo sapiens, UniProt P13569, DEL508-508); experiment: Cell Surface Expression-Horse Radish Peroxidase (CSE-HRP) assay, test compound without co-corrector; format: cell-based; settings: for Emax: maximum at any tested concentration, without co-corrector; for pEC50: test compound without co-corrector;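 as to Emax: percent of on-plate 2 µM positive control corrector response over DMSO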
T1 construct: expressed in transfected cells; host or cells: CFBE41o- human lung-derived epithelial cells (CFBE41o-F508delCFTR-HRP), doxycycline-inducible
Experimental: (§1) Cell Surface Expression-Horse Radish Peroxidase (CSE-HRP) Assay
(§2) A cellular assay for measuring the F508delCFTR cell surface expression after correction with test compounds either without or with a co-corrector (2 μM of 3-[(2R,4R)-4-({[1-(2,2-difluoro-1,3-benzodioxol-5-yl)cyclopropyl]carbonyl}amino)-7-methoxy-3,4-dihydro-2H-chromen-2-yl]benzoic acid), was developed in human lung derived epithelial cell line (CFBE41o-) (Veit G et al, (2012) Mol Biol Cell. 23(21): 4188-4202). The development was achieved by expressing the F508delCFTR mutation along with a horseradish peroxidase (HRP) in the fourth exofacial loop, and then measuring the HRP activity using luminescence readout from these cells, CFBE41o-F508delCFTR-HRP, that were incubated overnight with the test corrector compounds, either without or with the co-corrector. For this primary assay, the CFBE41o-F508delCFTR-HRP cells were plated in 384-well plates (Greiner Bio-one; Cat 781080) at 4,000 cells/well along with 0.5 μg/mL doxycycline to induce the F508delCFTR-HRP expression and further incubated at 37° C., 5% CO2 for 72 hours. The test compounds were then added either without or with a co-corrector at the required concentrations and further incubated for 18-24 hours at 33° C. The highest concentration tested was 20 μM with an 8-point concentration response curve using a 3-fold dilution in both the test compound without or with the co-corrector. Three replicate plates were run to determine one EC50. All plates contained negative controls (dimethyl sulfoxide, DMSO) and positive control (2 μM of 3-[(2R,4R)-4-({[1-(2,2-difluoro-1,3-benzodioxol-5-yl)cyclopropyl]carbonyl}amino)-7-methoxy-3,4-dihydro-2H-chromen-2-yl]benzoic acid) as well as on-plate concentration response of the positive control. Post incubation, the plates were washed 5× times with Dulbecco's phosphate buffered saline (DPBS), followed by the addition of the HRP substrate, luminol (50 μL), and measuring the HRP activity using luminescence readout on EnVision® Multilabel Plate Reader (Perkin Elmer; product number 2104-0010). The raw counts from the experiment were analyzed using Accelrys® Assay Explorer v3.3.
(§3) Z′ greater than 0.5 was used as passing quality control criteria for the plates.
(§4) 1−[3*SDPositive Control+3*SDNegative Control/Absolute (MeanPositive Control−MeanNegative Control)]
(§5) wherein “SD” is standard deviation.
(§6) The % activity measured at each of the 8 test concentrations of the test compound added either without or with a co-corrector (2 μM of 3-[(2R,4R)-4-({[1-(2,2-difluoro-1,3-benzodioxol-5-yl)cyclopropyl]carbonyl}amino)-7-methoxy-3,4-dihydro-2H-chromen-2-yl]benzoic acid) was normalized to the on-plate positive control using the following formulae:
% activity (Test compound without co-corrector)=[(test compound without co-corrector response−DMSO response)/(positive control response−DMSO response)]*100%
(§7) The maximum % activity achieved for the test compound either without or with a co-corrector at any tested concentration is presented in Table 1 along with the respective EC50's calculated using the following general sigmoidal curve with variable Hill slope equation (described as Model 42 in the Accelrys® Assay Explorer v3.3 software):
(§8) General sigmoidal curve with concentration, response, top, bottom, EC50 and Hill slope. This model describes a sigmoidal curve with an adjustable baseline, a. The equation can be used to fit curves where response is either increasing or decreasing with respect to the independent variable, “x”.
“x” is a concentration of drug under test. “y” is the response. “a” is the maximum response, and “d” is the minimum response “c” is the inflection point (EC50) for the curve. That is, “y” is halfway between the lower and upper asymptotes when x=c. “b” is the slope-factor or Hill coefficient. The sign of b is positive when the response increases with increasing dose and is negative when the response decreases with increasing dose (inhibition). The data is presented with the qualifiers shown below: […]

[2] = target: T1, F508delCFTR; experiment: Cell Surface Expression-Horse Radish Peroxidase (CSE-HRP) assay, test compound with co-corrector; format: cell-based; settings: for Maximum % activity (with co-corrector): maximum at any tested concentration;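 as to Maximum % activity (with co-corrector): percent of 2 µM positive control corrector over DMSO; co-corrector is that same compound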
Experimental: as §1, §2, §3, §4, §5, §6
activity (Test compound with co-corrector)=[(test compound with co-corrector response−DMSO response)/(positive control response−DMSO response)]*100
as §7, §8
“x” is a concentration of drug under test. “y” is the response. “a” is the maximum response, and “d” is the minimum response “c” is the inflection point (EC50) for the curve. That is, “y” is halfway between the lower and upper asymptotes when x=c. “b” is the slope-factor or Hill coefficient. The sign of b is positive when the response increases with increasing dose and is negative when the response decreases with increasing dose (inhibition).

[3] = normalized to positive control, with 2 μM co-corrector
[4] = normalized to on-plate positive control
[5] = CSE-HRP assay, test compound with 2 μM co-corrector
[6] = normalized to on-plate positive control, with 2 μM co-corrector

T1 sequence (P13569 with tags, fused parts or gaps DEL508-508): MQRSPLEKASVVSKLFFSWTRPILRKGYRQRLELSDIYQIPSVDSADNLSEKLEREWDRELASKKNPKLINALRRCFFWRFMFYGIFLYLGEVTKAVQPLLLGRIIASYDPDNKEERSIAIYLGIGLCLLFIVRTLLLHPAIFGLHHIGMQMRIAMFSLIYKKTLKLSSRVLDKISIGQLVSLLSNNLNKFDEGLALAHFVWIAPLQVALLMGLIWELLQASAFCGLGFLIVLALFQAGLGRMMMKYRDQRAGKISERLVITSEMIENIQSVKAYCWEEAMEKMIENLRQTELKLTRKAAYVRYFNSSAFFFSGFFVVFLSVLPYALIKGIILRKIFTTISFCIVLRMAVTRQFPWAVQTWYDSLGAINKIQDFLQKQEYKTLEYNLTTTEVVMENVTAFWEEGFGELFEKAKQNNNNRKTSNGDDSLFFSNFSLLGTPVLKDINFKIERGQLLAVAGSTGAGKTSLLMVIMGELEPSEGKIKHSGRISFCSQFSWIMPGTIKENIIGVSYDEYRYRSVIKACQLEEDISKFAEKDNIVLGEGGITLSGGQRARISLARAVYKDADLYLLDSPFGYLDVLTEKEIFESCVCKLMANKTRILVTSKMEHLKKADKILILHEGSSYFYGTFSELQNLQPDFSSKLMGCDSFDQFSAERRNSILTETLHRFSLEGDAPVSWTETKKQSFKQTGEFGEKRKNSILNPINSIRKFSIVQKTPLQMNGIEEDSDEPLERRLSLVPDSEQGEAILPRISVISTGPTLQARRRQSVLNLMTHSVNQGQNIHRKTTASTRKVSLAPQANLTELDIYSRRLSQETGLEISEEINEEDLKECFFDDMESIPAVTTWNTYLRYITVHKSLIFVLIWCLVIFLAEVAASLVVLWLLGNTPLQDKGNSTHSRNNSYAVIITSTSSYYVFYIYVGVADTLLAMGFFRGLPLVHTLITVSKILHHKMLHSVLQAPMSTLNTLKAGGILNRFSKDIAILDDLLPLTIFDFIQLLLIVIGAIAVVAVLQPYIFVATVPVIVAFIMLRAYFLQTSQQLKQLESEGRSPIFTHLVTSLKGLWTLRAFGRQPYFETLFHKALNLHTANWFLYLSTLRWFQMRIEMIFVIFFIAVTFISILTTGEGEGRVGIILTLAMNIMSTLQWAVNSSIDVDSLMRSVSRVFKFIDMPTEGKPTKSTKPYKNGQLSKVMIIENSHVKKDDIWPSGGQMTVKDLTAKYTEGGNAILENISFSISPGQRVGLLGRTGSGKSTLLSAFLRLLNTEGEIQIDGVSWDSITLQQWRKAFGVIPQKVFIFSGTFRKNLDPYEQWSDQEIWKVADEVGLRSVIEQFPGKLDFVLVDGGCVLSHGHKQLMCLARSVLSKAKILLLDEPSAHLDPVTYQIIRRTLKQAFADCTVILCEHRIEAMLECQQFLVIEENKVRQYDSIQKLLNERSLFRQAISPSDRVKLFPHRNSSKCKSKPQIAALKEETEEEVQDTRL

Row | Structure (SMILES) | Emax ([1]; normalized to positive control) | pEC50 [1] | Maximum % activity (with co-corrector) [2, 3] | pEC50 ([2]; with 2 μM co-corrector) | pEC50 ([1]; CSE-HRP assay) | Emax [1, 4] | pEC50 [2, 5] | Maximum % activity (with co-corrector) [2, 6]
1 | O=C(NS(=O)(=O)c1cccc2ccccc12)C1(CCn2cccn2)CCc2c(Cl)cccc21 (centres unmarked) [II-70] | 50 to 150% | > 5.52 | ++ (≥150 and <350) | > 5.52 | – | – | – | –
2 | COc1ccc(CCC2OCCCO2)c2c1C(C(=O)NS(=O)(=O)c1cccc3ccccc13)CCC2 (centres unmarked) [II-109] | ≥ 150% | 5.00 to 5.52 | +++ (≥350) | 5.00 to 5.52 | – | – | – | –
3 | COc1ccc(Cl)c2c1CC[C@H]2C(=O)NS(=O)(=O)c1cccc2ccccc12 (single isomer, unassigned) [Example I-86] | ≥ 150% | 5.00 to 5.52 | +++ (≥350) | > 5.52 | – | – | – | –
4 | Cc1ccccc1S(=O)(=O)NC(=O)C1CCc2c(-c3ccc(N(C)C)nc3)cccc21 (centres unmarked) [III-90] | < 50% | ≤ 5.00 | + (<150) | ≤ 5.00 | – | – | – | –
5 | COc1ccc2c(c1)CC[C@]2(C)C(=O)NS(=O)(=O)c1cccc2ccccc12 [II-45] | ≥ 150% | 5.00 to 5.52 | +++ (≥350) | 5.00 to 5.52 | – | – | – | –
6 | COc1cccc2c1CCC2C(=O)NS(=O)(=O)c1ccc(NCCC(C)(C)O)c([N+](=O)[O-])c1 (centres unmarked) [III-57] | < 50% | ≤ 5.00 | + (<150) | ≤ 5.00 | – | – | – | –
7 | COc1cccc2c1CCC2C(=O)NS(=O)(=O)c1cc(C)ccc1Cl (centres unmarked) [III-39] | < 50% | ≤ 5.00 | + (<150) | ≤ 5.00 | – | – | – | –
8 | COc1ccc(Br)c2c1C(C(=O)NS(=O)(=O)c1cccc3cnn(C)c13)CC2 (centres unmarked) [Example I-98, 4-bromo-7-methoxy-N-(1-methyl-1H-indazole-7-sulfonyl)-2,3-dihydro-1H-indene-1-carboxamide] | ≥ 150% | > 5.52 | +++ (≥350) | > 5.52 | – | – | – | –
9 | COc1ccc(-c2cccc3c2CCC3C(=O)NS(=O)(=O)c2ccccc2C)cn1 (centres unmarked) [III-85] | < 50% | ≤ 5.00 | ++ (≥150 and <350) | 5.00 to 5.52 | – | – | – | –
10 | COc1cccc2c1CCC2C(=O)NS(=O)(=O)c1ccc(C)c([N+](=O)[O-])c1C (centres unmarked) [III-49] | < 50% | ≤ 5.00 | ++ (≥150 and <350) | 5.00 to 5.52 | – | – | – | –
11 | COc1cccc2c1CCC2C(=O)NS(=O)(=O)c1ncccc1C(=O)N(C)C (centres unmarked) [III-82] | < 50% | ≤ 5.00 | + (<150) | ≤ 5.00 | – | – | – | –
12 | COc1ccc(C2=CCOCC2)c2c1C(C(=O)NS(=O)(=O)c1cccc3ncccc13)CC2 (centres unmarked) [III-169] | – | – | – | – | 5.00 to 5.52 | ≥ 150% | > 5.52 | +++ (≥350)
13 | COc1ccc(-c2ccc(C)cc2)c2c1C(C(=O)NS(=O)(=O)c1cccc3ccccc13)CCC2 (centres unmarked) [III-170] | – | – | – | – | > 5.52 | 50 to 150% | > 5.52 | +++ (≥350)
14 | O=C(NS(=O)(=O)c1cccc2ccccc12)C1CCCc2c1ccc1c2OCO1 (centres unmarked) [Example I-24, N-(naphthalene-1-sulfonyl)-6,7,8,9-tetrahydro-2H-naphtho[1,2-d][1,3]dioxole-6-carboxamide] | ≥ 150% | 5.00 to 5.52 | +++ (≥350) | > 5.52 | – | – | – | –
15 | CCC1(C(=O)NS(=O)(=O)c2cccc3c2OCCO3)CCc2c(Cl)cccc21 (centres unmarked) [II-74] | < 50% | ≤ 5.00 | + (<150) | ≤ 5.00 | – | – | – | –
16 | C[C@@]1(C(=O)NS(=O)(=O)c2cccc3ccccc23)CCc2cccc(Cl)c21 [Example I-27, (1R)-7-chloro-1-methyl-N-(naphthalene-1-sulfonyl)-2,3-dihydro-1H-indene-1-carboxamide] | ≥ 150% | > 5.52 | +++ (≥350) | > 5.52 | – | – | – | –
17 | O=C(NS(=O)(=O)c1cccc2ccccc12)C1CCc2c(Br)ccc(OCC3CC3)c21 (centres unmarked) [Example I-55, 4-bromo-7-(cyclopropylmethoxy)-N-(naphthalene-1-sulfonyl)-2,3-dihydro-1H-indene-1-carboxamide] | ≥ 150% | > 5.52 | +++ (≥350) | > 5.52 | – | – | – | –
18 | COc1ccc2c(c1)CCC2C(=O)NS(=O)(=O)c1ccccc1C (centres unmarked) [III-9] | < 50% | ≤ 5.00 | + (<150) | ≤ 5.00 | – | – | – | –
19 | CCC1(C(=O)NS(=O)(=O)c2ccc(OC)cc2)CCc2c(Cl)cccc21 (centres unmarked) [III-142] | – | – | – | – | 5.00 to 5.52 | < 50% | 5.00 to 5.52 | ++ (≥150 and <350)
20 | CCC1(C(=O)NS(=O)(=O)c2c(C)cccc2Cl)CCc2c(Cl)cccc21 (centres unmarked) [III-124] | – | – | – | – | ≤ 5.00 | < 50% | ≤ 5.00 | + (<150)
21 | COc1ccc(Br)c2c1C(C(=O)NS(=O)(=O)c1cccc3ncccc13)CCC2 (centres unmarked) [Example I-50, 5-bromo-8-methoxy-N-(quinoline-5-sulfonyl)-1,2,3,4-tetrahydronaphthalene-1-carboxamide] | ≥ 150% | > 5.52 | +++ (≥350) | > 5.52 | – | – | – | –
22 | CCCCC1(C(=O)NS(=O)(=O)c2cccc3ccccc23)CCc2c(Cl)cccc21 (centres unmarked) [Example I-30, 1-butyl-4-chloro-N-(naphthalene-1-sulfonyl)-2,3-dihydro-1H-indene-1-carboxamide] | – | – | +++ (≥350) | > 5.52 | – | – | – | –
